Measured values from ChEMBL document CHEMBL1156824, “Physicochemical space for optimum oral bioavailability: contribution of human intestinal absorption and first-pass elimination” (J Med Chem, 2010).

Tests used:
Homo sapiens [1] = organism: Homo sapiens; assay: Hepatic clearance in human; settings: in vivo
Homo sapiens [2] = organism: Homo sapiens; assay: in vitro; settings: plasma
Plasma = assay: Fraction unbound in human plasma
[3] = (§1) Volume of distribution at steady state in human; settings: in vivo
Homo sapiens [4] = organism: Homo sapiens; settings: in vivo
clinical = settings: human, in vivo
Homo sapiens [5] = organism: Homo sapiens; assay: Fraction escaping gut-wall elimination in human; settings: in vivo
Homo sapiens [6] = organism: Homo sapiens; assay: Fraction escaping hepatic elimination in human; settings: in vivo
Homo sapiens [7] = assay: Oral bioavailability in human; settings: in vivo
Homo sapiens [8] = organism: Homo sapiens; assay: as §1; settings: in vivo
Homo sapiens [9] = organism: Homo sapiens; assay: Fraction absorbed in human; settings: in vivo

`CO/N=C(\C(=O)N[C@@H]1C(=O)N2C(C(=O)O)=C(C)CS[C@H]12)c1csc(N)n1` gave a CL (Homo sapiens [1]) of 0.4 mL/min/kg and a fraction unbound (Homo sapiens [2]) of 0.78.
Compound `COc1ccc(Cl)cc1C(=O)NCCc1ccc(S(=O)(=O)NC(=O)NC2CCCCC2)cc1` [GLYBURIDE] has a Fu (Plasma) of 0.021, a CL (Homo sapiens [1]) of 0.8 mL/min/kg and a Vd [3] of 0.08 L/kg.
Work on `COCc1c(C(C)C)nc(C(C)C)c(/C=C/[C@@H](O)C[C@@H](O)CC(=O)O)c1-c1ccc(F)cc1` [CERIVASTATIN] yielded a CL (Homo sapiens [1]) of 2.9 mL/min/kg and a CL_renal (Homo sapiens [4]) of 0 mL/min/kg.
Work on `CCCCC(=O)N(Cc1ccc(-c2ccccc2-c2nnn[nH]2)cc1)[C@H](C(=O)O)C(C)C` yielded a Fu (Plasma) of 0.04, a CL (Homo sapiens [1]) of 0.3 mL/min/kg and a CL renal (clinical) of 0.1 mL/min/kg.
In the case of `CCOC(=O)C1(c2ccccc2)CCC=CC1N(C)C` (centres undefined) [TILIDINE], the CL (Homo sapiens [1]) is reported as 15.7 mL/min/kg, the Vd [3] is reported as 4 L/kg and the fraction unbound (Homo sapiens [2]) is reported as 0.21. For the same compound, the CL renal (clinical) was 0.3 mL/min/kg.
For `CC(C)(C)NCC(O)COc1cccc2c1CC(O)C(O)C2` (centres undefined) [NADOLOL], the Fu (Plasma) was 0.14 and the CL (Homo sapiens [1]) was 1.1 mL/min/kg.
Work on `COc1ccc2c(c1)c(CC(=O)O)c(C)n2C(=O)c1ccc(Cl)cc1` [INDOMETHACIN] yielded a Fu (Plasma) of 0.01 and a CL (Homo sapiens [1]) of 1.1 mL/min/kg.
Work on GENTAMICIN yielded a Fu (Plasma) of 1 and a CL (Homo sapiens [1]) of 0.3 mL/min/kg.
Work on `CCCc1cc(=O)[nH]c(=S)[nH]1` [PROPYLTHIOURACIL] yielded a Fu (Plasma) of 0.18, a CL (Homo sapiens [1]) of 3.1 mL/min/kg and a Fg (Homo sapiens [5]) of 0.97. For the same compound, the Fh (Homo sapiens [6]) was 0.87.
Work on `Cc1ncc2n1-c1ccc(Cl)cc1C(c1ccccc1F)=NC2` [MIDAZOLAM] yielded a CL (Homo sapiens [1]) of 5.3 mL/min/kg, a F_fraction (Homo sapiens [7]) of 0.38 and a CL_renal (Homo sapiens [4]) of 0 mL/min/kg.
With `Cc1cccc(C)c1NC(=O)NCCCNC(C)C` the CL (Homo sapiens [1]) was 2.2 mL/min/kg and the fraction unbound (Homo sapiens [2]) was 0.86.
In the case of `CO/N=C(\C(=O)N[C@@H]1C(=O)N2C(C(=O)O)=C(CSc3nc(=O)c(=O)[nH]n3C)CS[C@H]12)c1csc(N)n1` [CEFTRIAXONE], the Fu (Plasma) is reported as 0.052, the CL (Homo sapiens [1]) is reported as 0.1 mL/min/kg and the CL renal (clinical) is reported as 0.1 mL/min/kg.
Work on `COc1ccnc(C[S+]([O-])c2nc3ccc(OC(F)F)cc3[nH]2)c1OC` (centres undefined) [PANTOPRAZOLE] yielded a CL (Homo sapiens [1]) of 2.2 mL/min/kg and a Vdss (Homo sapiens [8]) of 6.3 L/kg.
For `O=C1C(O)=C([C@H]2CC[C@H](c3ccc(Cl)cc3)CC2)C(=O)c2ccccc21` [ATOVAQUONE], the Fu (Plasma) was 0.001, the CL (Homo sapiens [1]) was 0.2 mL/min/kg and the Vd [3] was 0.6 L/kg.
With `CCc1cccc2cc(C(O)CNC(C)(C)C)oc12` (centres undefined) [BUFURALOL] the CL (Homo sapiens [1]) was 8.9 mL/min/kg, the F_fraction (Homo sapiens [7]) was 0.43 and the Fa (Homo sapiens [9]) was 1. The Fg (Homo sapiens [5]) was 0.7, the Fh (Homo sapiens [6]) was 0.61 and the CL_renal (Homo sapiens [4]) was 0 mL/min/kg. The fraction unbound (Homo sapiens [2]) was 0.19.
